Source: patent publication US9351974B2, “Substituted pteridinones for the treatment of cancer” (OSI Pharmaceuticals, LLC, priority 2011, dated 2016)

What was measured:
[1] = biological target: T1, His-tagged full-length RSK2 (RPS6KA3) (Homo sapiens, UniProt P51812); experiment: RSK2 Omnia Assay for compound IC50 determination; format: biochemical; conditions: ATP 15 μM, n=2, read-out: Mean RSK2 Biochem IC50
T1 construct: His-tagged full-length RSK2 (RPS6KA3, Invitrogen PV3323); His; purchased Invitrogen PV3323
T1 sequence (P51812 whole entry): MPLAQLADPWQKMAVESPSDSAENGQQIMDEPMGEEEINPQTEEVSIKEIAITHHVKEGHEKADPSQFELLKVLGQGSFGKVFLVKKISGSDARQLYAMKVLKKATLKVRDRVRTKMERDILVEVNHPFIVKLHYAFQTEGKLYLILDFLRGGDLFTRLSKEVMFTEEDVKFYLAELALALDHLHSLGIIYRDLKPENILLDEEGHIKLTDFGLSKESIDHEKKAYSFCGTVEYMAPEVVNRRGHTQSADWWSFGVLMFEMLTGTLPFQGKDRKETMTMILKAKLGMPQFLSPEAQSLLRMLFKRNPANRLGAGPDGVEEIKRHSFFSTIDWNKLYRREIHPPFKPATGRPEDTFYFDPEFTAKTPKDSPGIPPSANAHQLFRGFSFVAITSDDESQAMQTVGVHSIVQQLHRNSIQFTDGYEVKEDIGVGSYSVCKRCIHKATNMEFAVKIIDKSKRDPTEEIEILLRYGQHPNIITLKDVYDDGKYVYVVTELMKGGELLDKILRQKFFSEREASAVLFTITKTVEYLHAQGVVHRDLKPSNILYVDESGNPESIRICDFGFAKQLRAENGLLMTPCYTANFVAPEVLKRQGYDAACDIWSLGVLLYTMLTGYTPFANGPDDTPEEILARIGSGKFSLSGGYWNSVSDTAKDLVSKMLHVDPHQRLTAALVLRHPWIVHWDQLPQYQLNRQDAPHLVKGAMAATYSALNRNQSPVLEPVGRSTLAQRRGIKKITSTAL
Summary of the method: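 Continuous fluorescence assay (ex 360/em 485 nm) of SOX-peptide (Omnia ST Peptide 6, 5 μM) phosphorylation with ATP 15 μM (Km 16.3 μM). Enzyme was […], in pH 7.5 HEPES/MgCl2 buffer with 1% DMSO. IC50 came from 11-point threefold dilutions ([…]) by four-parameter fit of initial slopes, in duplicate; Ki by Cheng-Prusoff assuming competitive inhibition.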

[2] = biological target: T2, His-tagged full length RSK1 (RPS6KA1) (Homo sapiens, UniProt Q15418); experiment: RSK1 Omnia Assay for compound IC50 determination; format: biochemical; conditions: ATP 15 μM, n=2, read-out: Mean RSK1 Biochem IC50
T2 construct: His-tagged full length RSK1 (RPS6KA1, Millipore 14-509); His; purchased Millipore 14-509
T2 sequence (Q15418 whole entry): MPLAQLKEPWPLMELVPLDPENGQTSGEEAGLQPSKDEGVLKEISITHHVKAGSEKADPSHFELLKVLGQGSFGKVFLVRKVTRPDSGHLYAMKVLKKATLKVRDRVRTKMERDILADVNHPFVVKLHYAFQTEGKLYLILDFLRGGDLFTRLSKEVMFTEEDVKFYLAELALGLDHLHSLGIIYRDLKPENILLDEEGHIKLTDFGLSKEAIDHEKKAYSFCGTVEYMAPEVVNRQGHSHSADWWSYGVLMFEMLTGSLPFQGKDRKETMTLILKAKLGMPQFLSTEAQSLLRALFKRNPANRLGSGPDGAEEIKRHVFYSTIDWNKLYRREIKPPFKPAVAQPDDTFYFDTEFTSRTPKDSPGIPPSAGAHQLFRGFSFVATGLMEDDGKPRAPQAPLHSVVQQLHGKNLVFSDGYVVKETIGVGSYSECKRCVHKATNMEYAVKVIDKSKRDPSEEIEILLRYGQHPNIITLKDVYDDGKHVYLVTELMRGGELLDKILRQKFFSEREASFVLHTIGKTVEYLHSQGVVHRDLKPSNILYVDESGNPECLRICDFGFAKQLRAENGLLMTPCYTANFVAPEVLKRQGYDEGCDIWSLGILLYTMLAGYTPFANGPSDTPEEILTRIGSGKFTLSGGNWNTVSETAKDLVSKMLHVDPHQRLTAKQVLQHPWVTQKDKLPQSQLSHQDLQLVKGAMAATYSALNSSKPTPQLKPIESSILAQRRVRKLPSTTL
Description: RSK1 & RSK2 Omnia Assay Protocol for Compound IC50 Determination
The Omnia Assay (Invitrogen) has been optimized for His-tagged full length RSK1 (RPS6KA1, Millipore 14-509) and for His-tagged full-length RSK2 (RPS6KA3, Invitrogen PV3323). In this assay system, Omnia ST Peptide 6 (Invitrogen KNZ1061) functions as a substrate for RSK1 or RSK2. Phosphorylation of this SOX-containing peptide results in an increase in fluorescence at 485 nm upon excitation at 360 nm.
Assays are carried out in 384-well OptiPlates (Perkin Elmer 6007290) in a total volume of 20 μL containing RSK1 ([…]) or RSK2 ([…]), Omnia ST Peptide 6 (5 μM), ATP (15 μM, Km=16.3 μM), and test compound (variable) in RSK assay buffer (50 mM HEPES, pH 7.5, 10 mM MgCl2, 0.01% Tween-20, 1% glycerol, 1 mM DTT, 1 mM EGTA, 0.01% BSA) with 1% DMSO.
IC50s for test compounds are typically determined using an 11-point three-fold serial dilution with a final assay concentration ranging either from 170 μM to […] or from 17 μM to […]. All compound concentrations are assayed in duplicate. Initial compound dilutions are prepared at 100× concentration in 100% DMSO from a 10 mM stock solution. Compounds are further diluted 1:25 in assay buffer resulting in a 4× concentrated solution.
To run the assay 5 μL of the above 4× concentrated compound solution (or 4% DMSO for positive controls) is added to the assay plate followed by 5 μL of a solution containing peptide (20 μM) and ATP (60 μM) in assay buffer. The reaction is initiated by the addition of 10 μL of RSK1 ([…]) or RSK2 ([…]) in assay buffer, or assay buffer alone for negative controls. The increase in fluorescence due to peptide phosphorylation is monitored continuously as a function of time using a Spectramax M5 plate reader (Molecular Devices) equipped with SoftMax Pro software.
The slopes from the linear portion of progress curves are used to determine IC50 values by non-linear curve-fitting to a four-parameter equation using GraphPad Prism (GraphPad Software, Inc.) or XLFit (IDBS). IC50's are determined in duplicate (n=2) and Ki values are calculated from IC50 values using the Cheng-Prusoff equation assuming a competitive mode of inhibition.

[3] = tested on: RSK1-4; conditions: G. P. Sapkota et al., Biochem J., 401, 29-38 (2007); cited from earlier work

**Q.** For C[C@@H]1C(=O)N(c2cccnc2)c2cnc(Nc3ccc4[nH]ncc4c3)nc2N1C1CCCCC1 [Example 23, (7R)-8-cyclohexyl-2-(1H-indazol-5-ylamino)-7-methyl-5-(pyridin-3-yl)-7,8-dihydropteridin-6(5H)-one], which IC50 [1] is on record?
**A.** ≤ 100 nM

**Q.** What about the IC50 [2] of the same compound?
**A.** ≤ 100 nM

**Q.** Which results are given for C[C@@H]1C(=O)N(c2ccccc2)c2cnc(Nc3ccc4[nH]ncc4c3)nc2N1C1CCCC1 [Example 66, (7R)-8-cyclopentyl-2-(1H-indazol-5-ylamino)-7-methyl-5-phenyl-7,8-dihydropteridin-6(5H)-one]?
**A.** IC50 [1]: ≤ 100 nM; IC50 [2]: ≤ 100 nM

**Q.** Which “inhibitor of RSK1-4” value [3] does the source give for CC(C)CCN1c2nc(Nc3cc(F)c(O)c(F)c3)ncc2N(C)C(=O)C1C (stereo not drawn) [BI-D1870] here?
**A.** potent inhibitor

**Q.** For C[C@@H]1C(=O)N(c2ccsc2)c2cnc(Nc3ccc4[nH]ncc4c3)nc2N1C1CCCCC1 [Example 57, (7R)-8-cyclohexyl-2-(1H-indazol-5-ylamino)-7-methyl-5-(thiophen-3-yl)-7,8-dihydropteridin-6(5H)-one], which IC50 [1] is on record?
**A.** ≤ 100 nM

**Q.** And the IC50 [2]?
**A.** ≤ 100 nM

**Q.** Which results are given for C[C@@H]1C(=O)N(c2cccc(C#N)c2)c2cnc(Nc3ccc4[nH]ncc4c3)nc2N1C1CCCCC1 [Example 29, 3-[(7R)-8-cyclohexyl-2-(1H-indazol-5-ylamino)-7-methyl-6-oxo-7,8-dihydropteridin-5(6H)-yl]benzonitrile]?
**A.** IC50 [1]: ≤ 100 nM; IC50 [2]: ≤ 100 nM

**Q.** With C[C@@H]1C(=O)N(c2ccc(N3CCN(C)CC3)c(C#N)c2)c2cnc(Nc3cc(F)c4[nH]ncc4c3)nc2N1C1CCOCC1 [compound 206, 5-[(7R)-2-[(7-fluoro-1H-indazol-5-yl)amino]-7-methyl-6-oxo-8-(tetrahydro-2H-pyran-4-yl)-7,8-dihydropteridin-5(6H)-yl]-2-(4-methylpiperazin-1-yl)benzonitrile] as the compound, how does the IC50 [1] read?
**A.** ≤ 100 nM

**Q.** With COc1ccc(N2C(=O)[C@@H](C)N(C3CCCCC3)c3nc(Nc4cc(F)c(O)c(F)c4)ncc32)cc1OC [compound 159] as the compound, how does the IC50 [1] read?
**A.** ≤ 100 nM

**Q.** For Cc1ccc(N2C(=O)[C@@H](C)N(C3CCCCC3)c3nc(Nc4ccc5[nH]ncc5c4)ncc32)cn1 [compound 113, (7R)-8-cyclohexyl-2-(1H-indazol-5-ylamino)-7-methyl-5-(6-methylpyridin-3-yl)-7,8-dihydropteridin-6(5H)-one], which IC50 [1] is on record?
**A.** ≤ 100 nM
